Drawing on ChEMBL document CHEMBL4834463, “Synthesis and fungicidal activity of novel 2-(2-alkylthio-6-phenylpyrimidin-4-yl)-1H-benzimidazoles” (Bioorg Med Chem Lett, 2021), this text covers EC50 for 13 compounds.

In brackets after ≈: the same amount, converted by molar mass.

One test relates to Sclerotinia sclerotiorum. Put plainly: Antifungal activity against Sclerotinia sclerotiorum assessed as inhibition of mycelia growth incubated for 48 hrs. Type of test: functional, organism-based.
In another test the test system is Botrytis cinerea. Put plainly: Antifungal activity against Botrytis cinerea assessed as inhibition of mycelia growth incubated for 48 hrs. Type of test: functional, organism-based.

As for `COc1ccc(-c2cc(-c3nc4ccccc4[nH]3)nc(SC)n2)cc1`, the results for the EC50 in the test with Sclerotinia sclerotiorum and with Botrytis cinerea were 23.5 µg/mL (≈ 67.4 µM) and 0.41 µg/mL (≈ 1.18 µM), respectively.

For `CCCCSc1nc(-c2ccc(OC)cc2)cc(-c2nc3ccccc3[nH]2)n1`, the EC50 turned out to be 16.4 µg/mL (≈ 41.9 µM) in the test on Sclerotinia sclerotiorum and 2.45 µg/mL (≈ 6.27 µM) with Botrytis cinerea.

Consider `COC(=O)Nc1nc2ccccc2[nH]1` [CARBENDAZIM], for which the EC50 is 13.3 µg/mL (≈ 69.7 µM) in the test on Sclerotinia sclerotiorum and 0.21 µg/mL (≈ 1.1 µM) in the test on Botrytis cinerea.

Consider `Fc1ccc(-c2cc(-c3nc4ccccc4[nH]3)nc(SCc3ccccc3)n2)cc1`, for which the results for the concentration for a half-maximal effect (EC50) with Sclerotinia sclerotiorum and in the test on Botrytis cinerea were 4.65 µg/mL (≈ 11.3 µM) and 0.14 µg/mL (≈ 0.339 µM), respectively.

For `Clc1ccc(-c2cc(-c3nc4ccccc4[nH]3)nc(SCc3ccccc3)n2)cc1`, the EC50 in the test on Sclerotinia sclerotiorum is 14 µg/mL (≈ 32.6 µM); in the test with Botrytis cinerea, 0.2 µg/mL (≈ 0.466 µM).

On to `CSc1nc(-c2ccccc2)cc(-c2nc3ccccc3[nH]2)n1`, for which the values for the half-maximal effective concentration (EC50) in the test with Sclerotinia sclerotiorum and with Botrytis cinerea were 45 µg/mL (≈ 141 µM) and 0.15 µg/mL (≈ 0.471 µM), respectively.

Turning to `CCCCSc1nc(-c2ccc(Cl)cc2)cc(-c2nc3ccccc3[nH]2)n1`, the results for the EC50 with Sclerotinia sclerotiorum and in the test on Botrytis cinerea were 20.6 µg/mL (≈ 52.1 µM) and 10.1 µg/mL (≈ 25.6 µM), respectively.

For the compound `CCCCSc1nc(-c2ccc(F)cc2)cc(-c2nc3ccccc3[nH]2)n1`, the results for the EC50 in the test with Sclerotinia sclerotiorum and in the test with Botrytis cinerea were 6.72 µg/mL (≈ 17.8 µM) and 0.16 µg/mL (≈ 0.423 µM), respectively.

Take `c1ccc(CSc2nc(-c3ccccc3)cc(-c3nc4ccccc4[nH]3)n2)cc1`: the results for the EC50 with Sclerotinia sclerotiorum and in the test with Botrytis cinerea were 8.95 µg/mL (≈ 22.7 µM) and 7.02 µg/mL (≈ 17.8 µM), respectively.

On to `COc1ccc(-c2cc(-c3nc4ccccc4[nH]3)nc(SCc3ccccc3)n2)cc1`, for which the EC50 with Sclerotinia sclerotiorum came to 10.2 µg/mL (≈ 24 µM); in the test on Botrytis cinerea, 0.28 µg/mL (≈ 0.66 µM).

In the case of `CSc1nc(-c2ccc(Cl)cc2)cc(-c2nc3ccccc3[nH]2)n1`, the EC50 in the test on Sclerotinia sclerotiorum is 17.3 µg/mL (≈ 49 µM); in the test on Botrytis cinerea, 1.15 µg/mL (≈ 3.26 µM).

As to `CCCCSc1nc(-c2ccccc2)cc(-c2nc3ccccc3[nH]2)n1`, the concentration for a half-maximal effect (EC50) in the test on Sclerotinia sclerotiorum was found to be 22.3 µg/mL (≈ 61.9 µM); with Botrytis cinerea, 0.34 µg/mL (≈ 0.943 µM).

With `CSc1nc(-c2ccc(F)cc2)cc(-c2nc3ccccc3[nH]2)n1`, the half-maximal effective concentration (EC50) in the test on Sclerotinia sclerotiorum is 16.6 µg/mL (≈ 49.5 µM); in the test on Botrytis cinerea, 0.95 µg/mL (≈ 2.82 µM).

One may read the EC50 as the concentration at which the effect is half-maximal.
